According to patent publication US7741485B2, “Benzenesulphonamide derivatives as herbicides or desiccant/defoliant compounds” (BASF Aktiengesellschaft, priority 2003, dated 2010):

What was measured:
[1] = system: common morning glory; assay: greenhouse herbicidal test, post-emergence treatment; assay type: in vivo
Description: (§1) The seeds of the test plants were sown separately for each species. For the post-emergence treatment, the test plants were first grown to a height of 3 to 15 cm, depending on the plant form, and only then treated with the active compounds, emulsified or suspended in water. The test plants were for this purpose either sown directly and grown in the same containers, or they were first grown separately as seedlings and transplanted into the test containers a few days prior to treatment. The application rate for the pre- and post-emergence treatment was from 62.5 to 3.1 g of a.s./ha. Depending on the species, the plants were kept at 10-25° C. or 20-35° C. The test period extended over 2 to 4 weeks. During this time, the plants were tended, and their response to the individual treatments was evaluated. Evaluation was carried out using a scale from 0 to 100. 100 means no emergence of the plants, or complete destruction of at least the above-ground parts, and 0 means no damage, or normal course of growth. The plants used in the greenhouse experiments were composed of the following species: [table]

[2] = system: pigweed; assay: as above; assay type: in vivo
Description: as §1

[3] = system: common lambsquarters; assay: as above; assay type: in vivo
Description: as §1

[4] = system: common morning glory; assay: greenhouse herbicidal test, pre-emergence treatment; assay type: in vivo; conditions: for pre-emergence activity against common morning glory: application rates of 12.5 and 6.2 g/ha; for control of morning glory, pre-emergence method: application rates of 6.2 and 3.1 g/ha
Description: (§2) The seeds of the test plants were sown separately for each species. For the pre-emergence treatment, the active compounds, emulsified or suspended in water, were applied directly after sowing by means of finely distributing nozzles. The containers were irrigated gently to promote germination and growth and subsequently covered with transparent plastic hoods until the plants had rooted. This cover caused uniform germination of the test plants, unless this was adversely affected by the active compounds. The application rate for the pre- and post-emergence treatment was from 62.5 to 3.1 g of a.s./ha. Depending on the species, the plants were kept at 10-25° C. or 20-35° C. The test period extended over 2 to 4 weeks. During this time, the plants were tended, and their response to the individual treatments was evaluated. Evaluation was carried out using a scale from 0 to 100. 100 means no emergence of the plants, or complete destruction of at least the above-ground parts, and 0 means no damage, or normal course of growth. The plants used in the greenhouse experiments were composed of the following species: [table]

[5] = system: pigweed; assay: as above; assay type: in vivo; conditions: for pre-emergence activity against pigweed: application rates of 12.5 and 6.2 g/ha; for control of pigweed, pre-emergence method: application rates of 6.2 and 3.1 g/ha
Description: as §2

[6] = system: common lambsquarters; assay: as above; assay type: in vivo; conditions: for pre-emergence activity against common lambsquarters: application rates of 12.5 and 6.2 g/ha; for control of common lambsquarters, pre-emergence method: application rates of 6.2 and 3.1 g/ha
Description: as §2

[7] = system: wild buckwheat; assay: as above; assay type: in vivo; conditions: application rates of 12.5 and 6.2 g/ha
Description: as §2

[8] = system: ladysthumb; assay: greenhouse herbicidal test, post-emergence treatment; assay type: in vivo; conditions: for post-emergence activity against ladysthumb: application rates of 15.6 and 7.8 g/ha; for post-emergence activity against ladiesthumb: application rates of 15.63 g/ha
Description: as §1

[9] = system: common nightshade; assay: greenhouse herbicidal test, pre-emergence treatment; assay type: in vivo; conditions: application rates of 62.5 and 31.2 g/ha
Description: as §2

[10] = system: velvet leaf; assay: as above; assay type: in vivo; conditions: for control of velvet leaf, pre-emergence method: application rates of 6.2 and 3.1 g/ha
Description: as §2

[11] = system: cleavers harrif; assay: greenhouse herbicidal test, post-emergence treatment; assay type: in vivo; conditions: application rates of 15.63 g/ha
Description: as §1

[12] = system: Bengal commelina; assay: as above; assay type: in vivo; conditions: application rates of 15.63 g/ha
Description: as §1

[13] = system: velvet leaf; assay: as above; assay type: in vivo; conditions: application rates of 15.63 g/ha
Description: as §1

[14] = application rates of 15.6 and 7.8 g/ha
[15] = application rates of 62.5 and 31.2 g/ha
[16] = application rates of 15.63 g/ha

CCCCCOC(=O)NS(=O)(=O)c1cc(-n2c(=O)cc(C(F)(F)F)n(C)c2=O)c(F)cc1Cl [Compound 3.26]
very good: post-emergence activity against common morning glory [1, 14] | post-emergence activity against pigweed [2, 14] | post-emergence activity against common lambsquarters [3, 14]

CC(C)C(=O)NS(=O)(=O)c1cc(-n2c(=O)cc(C(F)(F)F)n(C)c2=O)ccc1Cl [Compound 4.5, N-isobutynyl-[2-chloro-5-(3,6-dihydro-3-methyl-2,6-dioxo-4-trifluoromethyl-1-(2H)-pyrimidinyl)]benzenesulfonamide]
114 to 116 °C: melting point

COC(=O)NS(=O)(=O)c1cc(-n2c(=O)cc(C(F)(F)F)n(C)c2=O)c(F)cc1Cl [Compound 3.18]
very good: pre-emergence activity against common morning glory [4] | pre-emergence activity against pigweed [5] | pre-emergence activity against common lambsquarters [6] | pre-emergence activity against wild buckwheat [7]

Cn1c(C(F)(F)F)cc(=O)n(-c2cc(S(=O)(=O)NC(=O)OC3CCCC3)c(Cl)cc2F)c1=O [Compound 3.27]
very good: post-emergence activity against common morning glory [1, 14] | post-emergence activity against pigweed [2, 14] | post-emergence activity against common lambsquarters [3, 14] | post-emergence activity against ladysthumb [8]

Cn1c(C(F)(F)F)cc(=O)n(-c2cc(S(=O)(=O)NC(=O)OCc3ccccc3)c(Cl)cc2F)c1=O [Compound 3.32, Benzyl{2-chloro-4-fluoro-5-[3,6-dihydro-3-methyl-2,6-dioxo-4-trifluoromethyl-(2H)-pyrimidin-1-yl]phenyl}sulfonylcarbamate]
very good: effectiveness against pigweed, pre-emergence method [5, 15] | effectiveness against common nightshade, pre-emergence method [9] | effectiveness against common lambsquarters, pre-emergence method [6, 15] | effectiveness against velvet leaf, pre-emergence method [10, 15]

CCC(=O)NS(=O)(=O)c1cc(-n2c(=O)cc(C(F)(F)F)n(C)c2=O)c(F)cc1Cl [Compound 4.14]
very good: post-emergence activity against cleavers harrif [11] | post-emergence activity against pigweed [2, 16] | post-emergence activity against ladiesthumb [8]

C#CC(C)N(C)C(=O)NS(=O)(=O)c1cc(-n2c(=O)cc(C(F)(F)F)n(C)c2=O)c(F)cc1Cl (stereo not drawn) [Compound 2.28]
very good: post-emergence activity against common morning glory [1, 16] | post-emergence activity against pigweed [2, 16] | post-emergence activity against common lambsquarters [3, 16]

CNC(=O)NS(=O)(=O)c1cc(-n2c(=O)cc(C(F)(F)F)n(C)c2=O)c(F)cc1Cl [Compound 2.17]
very good: post-emergence activity against Bengal commelina [12] | post-emergence activity against common lambsquarters [3, 16] | post-emergence activity against velvet leaf [13]

CCCCOC(=O)NS(=O)(=O)c1cc(-n2c(=O)cc(C(F)(F)F)n(C)c2=O)c(F)cc1Cl [Compound 3.22]
very good: post-emergence activity against common morning glory [1, 14] | post-emergence activity against pigweed [2, 14] | post-emergence activity against common lambsquarters [3, 14] | post-emergence activity against ladysthumb [8]

COCC(C)(C)OC(=O)NS(=O)(=O)c1cc(-n2c(=O)cc(C(F)(F)F)n(C)c2=O)c(F)cc1Cl [Compound 3.42]
very good: post-emergence activity against common morning glory [1, 16] | post-emergence activity against velvet leaf [13] | post-emergence activity against ladiesthumb [8]

CCOC(=O)NS(=O)(=O)c1cc(-n2c(=O)cc(C(F)(F)F)n(C)c2=O)c(F)cc1Cl [Compound 3.19]
very good: post-emergence activity against common morning glory [1, 14] | post-emergence activity against pigweed [2, 14] | post-emergence activity against common lambsquarters [3, 14] | post-emergence activity against ladysthumb [8]

CC(C)COC(=O)NS(=O)(=O)c1cc(-n2c(=O)cc(C(F)(F)F)n(C)c2=O)c(F)cc1Cl [Compound 3.24]
very good: control of morning glory, pre-emergence method [4] | control of pigweed, pre-emergence method [5] | control of common lambsquarters, pre-emergence method [6] | control of velvet leaf, pre-emergence method [10]

CC(C)C(=O)NS(=O)(=O)c1cc(-n2c(=O)cc(C(F)(F)F)n(C)c2=O)c(F)cc1Cl [Compound 4.16]
very good: control of morning glory, pre-emergence method [4] | control of pigweed, pre-emergence method [5] | control of common lambsquarters, pre-emergence method [6] | control of velvet leaf, pre-emergence method [10]

CCCOC(=O)NS(=O)(=O)c1cc(-n2c(=O)cc(C(F)(F)F)n(C)c2=O)c(F)cc1Cl [Compound 3.20]
very good: post-emergence activity against common morning glory [1, 14] | post-emergence activity against pigweed [2, 14] | post-emergence activity against common lambsquarters [3, 14] | post-emergence activity against ladysthumb [8]

Cn1c(C(F)(F)F)cc(=O)n(-c2cc(S(=O)(=O)NC(=O)Nc3ccccc3)c(Cl)cc2F)c1=O [Compound 2.29]
very good: post-emergence activity against common morning glory [1, 14] | post-emergence activity against pigweed [2, 14] | post-emergence activity against common lambsquarters [3, 14]

COC(=O)COC(=O)NS(=O)(=O)c1cc(-n2c(=O)cc(C(F)(F)F)n(C)c2=O)c(F)cc1Cl [Compound 3.41]
very good: post-emergence activity against cleavers harrif [11] | post-emergence activity against pigweed [2, 16] | post-emergence activity against ladiesthumb [8]

CC(C)N(C(=O)NS(=O)(=O)c1cc(-n2c(=O)cc(C(F)(F)F)n(C)c2=O)c(F)cc1Cl)C(C)C [Compound 2.27]
very good: post-emergence activity against common morning glory [1, 16] | post-emergence activity against pigweed [2, 16]

COC(=O)NS(=O)(=O)c1cc(-n2c(=O)cc(C(F)(F)F)n(C)c2=O)ccc1Cl [Compound 3.1]
very good: pre-emergence activity against common morning glory [4] | pre-emergence activity against pigweed [5] | pre-emergence activity against common lambsquarters [6] | pre-emergence activity against wild buckwheat [7]
